Source: patent US20260232835A1, “AFFIBODY MICELLE DRUG CONJUGATE” (KOWA COMPANY, LTD., priority 2022, published 2026)

How the values were obtained:
[1] = test system: mouse colon cancer cell line C26; assay: Drug efficacy test in cancer-carrying nude mice with subcutaneously transplanted C26; type: in vivo; details: after 14 days from administration; tail vein, 3 times every other day; DACHPt-encapsulating SCNP 3 mg/kg in terms of Pt, oxaliplatin solution 8 mg/kg (3.9 mg/kg in terms of Pt)
Method: Cancer-carrying models obtained by subcutaneously transplanting a mouse colon cancer cell line C26 (American Type Culture Collection) into female nude mice (BALB/c-nu/nu, 7 weeks old; Charles River Laboratories Japan, Inc.) were used for the drug efficacy test.
The mouse colon cancer cell line C26 subcultured in a CO2 incubator was suspended in a liquid medium (Dulbecco's Modified Eagle's Medium-high glucose, Sigma-Aldrich), and injected subcutaneously in the back of each of the nude mice such that the number of cells per mouse was 1×106/100 μL. Then, the nude mice were raised for about 1 week, and then administration of the agent was started when an average value of tumor volumes was grown to about 30 mm^3. The DACHPt-encapsulating SCNP (DACHPt-encapsulating SCNP prepared using the copolymer of Example 70) was administered through the tail veins of the mice (3 times every other day), and antitumor effects were evaluated based on the tumor volumes (4 to 5 mice per 1 group). As a comparison, an oxaliplatin solution (Comparative Example 1) was used, and the oxaliplatin solution was administered in the same manner. The dose of each preparation was 8 mg/kg (3.9 mg/kg in terms of Pt) as the maximum administrable dose for the oxaliplatin solution, and 3 mg/kg in terms of Pt for the DACHPt-encapsulating SCNP. […]

[2] = test system: HER2 antigen-positive human cancer cell line HCC-1954; assay: Cytotoxic test (CellTiter-Glo cell viability), HCC-1954; type: cell-based; details: cultured for 4 days
Method: (§1) The mertansine (DM1) (Cayman CHEMICAL) was dissolved in dimethyl sulfoxide (DMSO: FUJIFILM Wako Pure Chemical Corporation) to prepare DM1 solutions of 60 μmol/L, 20 μmol/L, 6.7 μmol/L, 2.2 μmol/L, 0.74 μmol/L, 0.25 μmol/L, 0.082 μmol/L, and 0.027 μmol/L. Next, after a dilution series of 60 nmol/L, 20 nmol/L, 6.7 nmol/L, 2.2 nmol/L, 0.74 nmol/L, 0.25 nmol/L, 0.082 nmol/L, and 0.027 nmol/L were created by respectively diluting these solutions with RPMI1640 (hereinafter, RPMI1640 medium) containing 10% fetal bovine serum (Merck KGaA), these solutions were respectively added to a cell culture microplate in equal amounts to a cell culture liquid, and diluted to 1/2, thereby evaluating the cytotoxic effects thereof at a final DM1 concentration of 30 nmol/L, 10 nmol/L, 3.3 nmol/L, 1.1 nmol/L, 0.37 nmol/L, 0.12 nmol/L, 0.041 nmol/L, or 0.014 nmol/L.
(§2) A HER2 antigen-positive human gastric cancer cell line HCC-1954 (American Type Culture Collection) or a HER2 antigen-negative human breast cancer cell line MDA-MB-468 (American Type Culture Collection) was adjusted to a cell concentration of 2.0×10^4 cells/mL with the RPMI1640 medium, and 100 μL each was added to the 96 well microplate for cell culture and cultured overnight. […] The light emission amount was then measured with the plate reader (Molecular Devices, LLC.). The cell viability was calculated by the following equation. […]

[3] = test system: human breast cancer cell line MDA-MB-468; assay: Cytotoxic test (CellTiter-Glo cell viability), MDA-MB-468; type: cell-based; details: Table 8, cultured for 4 days, read-out: IC50 HER2-negative MDA-MB-468
Method: as §1, §2

## O=C1[O][Pt]2([NH][C@@H]3CCCC[C@H]3[NH]2)[O]C1=O [oxaliplatin solution, oxaliplatin]
[1]
  T/C: ratio of the tumor volume of the drug administration group (T) to that of the control group (C): 1.1

## COc1cc2cc(c1Cl)N(C)C(=O)C[C@H](OC(=O)[C@H](C)N(C)C(=O)CCS)[C@]1(C)O[C@H]1[C@H](C)[C@@H]1C[C@@](O)(NC(=O)O1)[C@H](OC)/C=C/C=C(\C)C2 [Comparative example 2, mertansine, reference compound]
[2]
  IC50: 0.11 nM
[3]
  IC50: 0.41 nM
